# In patent US20040037904A1, “Antibacterial composition comprising as an active ingredient saponificated vegetable oil” (priority 2000, published 2004):
# Entries after “also recorded” stand apart in the source; their conditions may differ.
# Tests used:
# [1] = tested on: Musca domestica (adult); experiment: Adult flies in spray-treated Petri dishes, surviving flies counted; format: in vivo; settings: 10 adult flies per pre-treated dish; RB 86 6%, Bionim 0.4%, potassium oleate 5% concentration
# Description: (§1) As RB 86™ needs an emulsifier for dissolving this emulsifier was also tested. All tests were reiterated, making a total of five times for each. Throughout the study, houseflies (Musca domestica) of a laboratory strain (772a) obtained from Statens Skadedyrslaboratorium, Lyngby, Denmark, was used. Standard medium for culturing larvae consisted of baker's yeast, mill: powder, water and wheat bran.
# Test vessels were Petri dishes made of glass with a diameter of 9 cm. With the help of a spraying bottle the bottoms of the vessels were treated with each of the compositions a)-f). After transferring 10 adult flies to each of the pre-treated dishes, the dishes were covered with plastic film and the registration started. Observations were performed by counting the surviving flies at the start, after 5 minutes and subsequently every 10th minute up to a total of 60 minutes. Two further observations were made after 1.5 and 2 hours from the start, respectively.
# [2] = tested on: Musca domestica (larvae); experiment: Larvae in culture medium with the composition, surviving larvae counted; format: in vivo; settings: six days old larvae, 24° C., observed up to 36 hours
# Description: as §1
# Six days old larvae were placed in 1.5 litre plastic vessels (Cerbo™) containing 40 g culture medium and the respective composition a)-f). The vessels were placed in a climate room (24° C., RH %=75%±10%). Observations were performed whereby the number surviving larvae were registrated after 2, 5, 12, 24 and 36 hours.
# [3] = tested on: M. domestica spiracle opening bristles; experiment: Effects on flies studied in scanning electron microscope; format: in vivo, Musca domestica; settings: adult flies; Bionim 0.4%, potassium oleate 5%, Blidol 0.02%; SEM
# Text: A scanning electron microscope (SEM) was used to microscope adult flies treated with:
# whereby morphological changes could be detected. These flies were photographed and compared with normal flies.
# Morphological changes could be detected on the spiracle opening on the middle part of the body. Bristles (see FIG. 12) surround this breathing hole. […] Apparently these last mentioned effects are present when using the other compositions.
# [4] = tested on: fleas; experiment: Flea control on dogs; format: in vivo
# Description: 15 dogs infested with fleas were treated with oleate. The oleate was sprayed from pump bottles. At the first treatment the dogs were sprayed with oleate in the groins, armpits and head/neck. At the second treatment, twenty-four hours later, the dogs were sprayed only in the armpits and behind the ears.
smiles,measurement,setting,value
CCCCCCCC/C=C\CCCCCCCC(=O)[O-].[K+] [Potassium oleate],time within which all flies were killed,[1],≤ 5 min
same,controlling effect on larvae,[2],An effect could however be detected
same,deformation of bristles around the spiracle opening,[3],The bristles are minimally affected; also recorded: only showed minimal changes
same,fleas found on dogs,"[4]; after the first spray treatment, 15 infested dogs",only one or two fleas were found on some dogs
same,living fleas found,"[4]; forty-eight hours later, after the second treatment",no living flea was found
same,living fleas found at another check,[4]; four days later,the result was the same
